Measurements reported in patent US7615377B2, “Fluorescein-based metal sensors” (Massachusetts Institute of Technology, priority 2003, dated 2009).
Like-named read-outs stand apart in the source and are kept apart here.

Legend:
[1] = Selectivity of mercury-induced fluorescence in the presence of other metal ions; format: binding; details: for fluorescence increase upon addition of Hg^2+: 1 μM probe, excitation 500 nm
Method: Selectivity of Mercury-Induced Fluorescence in the Presence of Other Metal Ions. The selectivity of MS1 for Hg^2+ against a background of various alkali, alkaline earth, transition metal ions, and Zn(II), Cd(II) or Pb(II) was investigated by using fluorescence spectroscopy. Aqueous metal ion solutions of Li(I), Na(I), Rb(I), Mg(II), Ca(II), Sr(II), Ba(II), Mn(II), Co(II), Ni(II), Cd(II), and Hg^2+ were prepared from the chloride salts. The Cu(II) solution was prepared from copper sulfate and the Pb(II) was prepared from lead nitrate. A solution of Cr(III) was prepared from chromium acetate and stored at pH 1. Solutions of Fe(II) were prepared immediately before use with ferrous ammonium sulfate and water that was thoroughly purged with Ar. All stock solutions were ˜10 mM, with the exception of 100 mM NaCl. In a typical experiment, the emission spectrum of the free dye was recorded. A 20 μL aliquot of a ˜10 mM metal solution was then added to a 1 μM solution of MS1 (3 mL, for a concentration of metal ion at about 1 to about 50 ppm, depending on the molecular weight of the metal ion tested) and the emission spectrum was recorded with excitation at 500 nm. Subsequently, a 20 μL portion of 10 mM HgCl2 was added and the emission spectrum was obtained. The spectra were integrated from 510-650 nm and normalized with respect to the free dye.

[2] = Determination of protonation constants (fluorescence dependence on pH); format: physicochemical; details: 10 mM KOH, 1 μM probe; for pKa, formation of a non-fluorescent isomer / pKa, protonation of the tertiary amine: 100 mM KCl, pH ~12 to ~3; for pKa: aqueous solution of 100 mM KCl
Method: Determination of Protonation Constants. The pKa values for MS1 affect fluorescence were determined by plotting the integrated emission intensity versus pH from ˜12 to ˜4. In a typical experiment, a 30 mL solution of 1 μM MS1 in 100 mM KCl, 10 mM KOH was prepared (pH ˜12). Aliquots of 6 N, 2 N, 1 N, 0.5 N, and 0.5 N HCl were added to achieve pH changes of approximately […], and the emission spectrum was recorded after each addition. […] Upon excitation at 500 nm, the emission spectra were integrated over the range 510 nm to 650 nm, normalized and plotted against pH. The data were fit to the non-linear expression previously described.

[3] = Quantum yield and extinction coefficient measurements (reference fluorescein in 0.1 N NaOH); format: physicochemical
Text: Quantum yield, Φ, may be obtained by comparison of the integrated area of the corrected emission spectrum of the sample with that of a reference solution. A preferred reference solution is a solution of fluorescein in 0.1 N NaOH, quantum efficiency 0.95. The concentration of the reference is adjusted to match the absorbance, Abs, of the test sample. The quantum yields may be calculated using the following equation: […]
Optical Absorption Spectroscopy. UV-visible spectra were obtained by using either a Cary IE scanning spectrophotometer or a Hewlet Packard diode array spectrophotometer. Both instruments were controlled by Pentium PCs and were run using the manufacturer supplied software packages. A circulating water bath was used during acquisition to maintain the temperature at 25.0° C.±1.0° C. Samples were contained in 1-cm path length quartz cuvettes (3.5 mL volume). All manipulations were performed at least three times.
Quantum Yield Measurements. The quantum yield of MS1 was determined by comparison to fluorescein in 0.1 N NaOH (φ=0.95) as a reference. In a typical experiment, a 6 mL solution of ˜1 μM MS1 was prepared. For metal-free studies, 10 μL of 100 mM K4EDTA was added to chelate any adventitious metal ions. To determine the quantum efficiencies of the metal-bound dye, 10 μL of a 10 mM HgCl2 solution was added to a 1 μM MS1 solution. The concentration of the reference solution was adjusted such that Amax (490 nm) equaled Amax of MS1 (505 nm) or Amax of the Hg^2+ complex (501 nm), and the excitation wavelength was chosen as the wavelength determined from where the reference and probe excitation spectra intersect. Excitation was at 497 nm for MS1 and at 496 nm for the Hg^2+ complex. Emission spectra were integrated from 510-650 nm and the quantum yields were calculated standard methods.

[4] = Fluorescence response of sensor to Hg^2+ (fluorescence spectroscopy, integrated emission); format: binding
Method: General Spectroscopic Procedures. Ultrol grade PIPES (piperazine-N,N′-bis(2-ethanesulfonic acid) from Calbiochem, KCl (99.997%) and anhydrous HgCl2 (99.998%) were purchased and used as received. Millipore filtered water was used to prepare all aqueous solutions. With the exception of the pKa determination, all spectroscopic measurements were conducted at neutral pH with 50 mM PIPES, 100 mM KCl buffer adjusted to pH 7. An Orion glass electrode, calibrated prior to use, was employed to record solution pH. Mercury solutions were prepared from 10 mM stock solutions of HgCl2. Stock solutions of MS1 (1 mM in DMSO) was prepared, stored at −4° C., and thawed in the dark immediately prior to use. After addition of this stock solution to aqueous buffers, the resulting solution contained 0.1% DMSO for fluorescence and 1% DMSO for absorption measurements. The KaleidaGraph software package was used to manipulate all spectral data.
Fluorescence Spectroscopy. Emission spectra were obtained with a Hitachi F-3010 spectrofluorimeter linked to a Pentium PC running the SpectraCalc software package. A rhodamine quantum counter was used to normalize the spectra for excitation intensity, and manufacturer-supplied correction curves were used to normalize the emission spectra. Manufacturer supplied photomultiplier curves were used to correct for emission intensity. A circulating water bath was used during all experiments to regulate the temperature at 25.0° C.±0.1° C. Spectra were obtained with 3 nm slit widths and either a 240 nm/min or 600 nm/min scan speed. All measurements were conducted at least in triplicate.

[5] = Reversibility of Hg^2+ binding upon addition of TPEN
[6] = Water solubility of the probe; format: physicochemical
[7] = pH 7, metal-free, at absorption maximum (497 nm sensor 1; 505 nm MS1)
[8] = pH 7, with Hg^2+, at absorption maximum (500 nm sensor 1; 501 nm MS1)

CC(C)(S)CN(Cc1ccccn1)Cc1c(O)ccc2c(-c3ccccc3C(=O)O)c3cc(Cl)c(=O)cc-3oc12 [sensor 2]
selectivity of fluorescence increase for Hg^2+ over other cations ([1]; pH 7): selective for Hg^2+ | fluorescence increase upon addition of Hg^2+ ([1]; pH 7 (50 mM PIPES, 100 mM KCl)): 1.5 fold | selectivity of fluorescence increase for Hg^2+ over other cations ([1]; pH 11): selective for Hg^2+ | fluorescence increase upon addition of Hg^2+ ([1]; pH 11 (50 mM CABS, 100 mM KCl)): 6 fold | pKa, formation of a non-fluorescent isomer [2]: 4.7 | pKa, protonation of the tertiary amine [2]: 8.0

O=C(O)c1ccccc1-c1c2cc(Cl)c(=O)cc-2oc2c(CN(CCS)Cc3ccccn3)c(O)ccc12 [sensor 1]
selectivity of fluorescence increase for Hg^2+ over other cations ([1]; pH 7): selective for Hg^2+ | fluorescence increase upon addition of Hg^2+ ([1]; pH 7 (50 mM PIPES, 100 mM KCl)): 1.5 fold | fluorescence increase upon addition of Hg^2+ ([1]; pH 7 (50 mM PIPES, 100 mM KCl), listed as Sensor 1): ~2.5 fold | selectivity of fluorescence increase for Hg^2+ over other cations ([1]; pH 11): selective for Hg^2+ | fluorescence increase upon addition of Hg^2+ ([1]; pH 11 (50 mM CABS, 100 mM KCl)): 5 fold | quantum yield, free sensor ([3]; pH 7, metal-free): 0.27 | extinction coefficient (epsilon), free sensor [3, 7]: 61,600 M^−1 cm^−1 | quantum yield, Hg^2+-bound ([3]; pH 7, with Hg^2+): 0.27 | extinction coefficient (epsilon), Hg^2+-bound [3, 8]: 69,000 M^−1 cm^−1 | quantum yield, free sensor ([3]; pH 11, metal-free): 0.07 | extinction coefficient (epsilon), free sensor ([3]; pH 11, metal-free, 504 nm): 60,800 M^−1 cm^−1 | quantum yield, Hg^2+-bound ([3]; pH 11, with Hg^2+): 0.24 | extinction coefficient (epsilon), Hg^2+-bound ([3]; pH 11, with Hg^2+, 507 nm): 78,300 M^−1 cm^−1 | pKa, formation of a non-fluorescent isomer [2]: 4.6 | pKa, protonation of the tertiary amine [2]: 8.2 | increase in integrated emission upon addition of Hg^2+ ([4]; pH 11 (50 mM CABS, 100 mM KCl), 0-3 equivalents Hg^2+, excitation 504 nm): ~6 fold

O=C(O)c1ccccc1-c1c2cc(Cl)c(=O)cc-2oc2c(CNc3ccccc3CN(CCS)Cc3ccccn3)c(O)ccc12 [sensor 4]
fluorescence response upon addition of Hg^2+ ([4]; crude reaction mixture from the synthesis, in the presence of chloride ion): positive fluorescence response

CCSCCN(CCSCC)Cc1ccccc1NCc1c(O)ccc2c(-c3ccccc3C(=O)O)c3cc(Cl)c(=O)cc-3oc12 [sensor 3, 2-{5-[(2-{[Bis-(2-ethylsulfanyl-ethyl)-amino]-methyl}-phenylamino)-methyl]-2-chloro-6-hydroxy-3-oxo-3H-xanthen-9-yl}-benzoic acid]
Hg response in a background of alkali and alkaline earth metals ([1]; Li(I), Na(I), Rb(I), Mg(II), Ca(II), Sr(II), Ba(II)): unaffected | effect of Zn(II), Cd(II), Cr(III), Pb(II) on fluorescence response to Hg^2+ ([1]; Zn(II), Cd(II), Cr(III), Pb(II) background): do not inhibit | interference of first-row transition metal ions with Hg^2+-induced fluorescence increase ([1]; first-row transition metal ions): only Cu(II) interferes | selectivity of fluorescence increase for Hg^2+ over other cations ([1]; pH 7): selective for Hg^2+ | reversibility of Hg^2+ binding [5]: reversibly | normalized integrated emission versus cycle number, Hg^2+/TPEN cycles ([5]; 1 μM sensor, 1 equiv Hg^2+ and 1 equiv TPEN alternately, excitation 500 nm): restoration and decrease of fluorescence upon addition of 1 equiv Hg^2+ and 1 equiv TPEN, respectively, over the course of five cycles | fluorescence after TPEN addition, distance from the background value ([5]; 1 equivalent TPEN added to stoichiometric mixture of sensor and Hg^2+): ≤ 20% | absorption maximum, free sensor ([3]; pH 7): 505 nm | increase in brightness upon Hg^2+ binding ([3]; pH 7): ~3.3 fold | increase in quantum yield upon Hg^2+ coordination ([3]; pH 7): ~2.75 fold | emission maximum, free sensor ([3]; pH 7, 50 mM PIPES, 100 mM KCl, EDTA present): 524 nm | quantum yield, free sensor ([3]; pH 7, metal-free): 0.04 | extinction coefficient (epsilon), free sensor [3, 7]: 61,400 M^−1 cm^−1 | extinction coefficient (epsilon), free sensor ([3]; pH 7, metal-free, at absorption maximum (497 nm sensor 1; 505 nm MS1), listed as MS1): 61,300 M^−1 cm^−1 | absorption maximum, Hg^2+-bound ([3]; pH 7, with Hg^2+): 501 nm | emission maximum, Hg^2+-bound ([3]; pH 7, with Hg^2+): 528 nm | quantum yield, Hg^2+-bound ([3]; pH 7, with Hg^2+): 0.11 | extinction coefficient (epsilon), Hg^2+-bound [3, 8]: 73,200 M^−1 cm^−1 | pKa ([2]; pH ~12 to ~3, read-out: pKa, formation of a non-fluorescent isomer): 4.8 | pKa ([2]; pH ~12 to ~3, read-out: pKa, protonation of the aniline nitrogen atom): 7.1 | EC50 ([4]; 500 nM probe, pH 7, read-out: EC50 (concentration of Hg^2+ required to achieve 50% of maximum fluorescence)): 410 nM | increase in integrated emission upon addition of Hg^2+ ([4]; pH 7 (50 mM PIPES, 100 mM KCl)): ~7 fold | increase in integrated emission upon addition of Hg^2+ ([4]; pH 7 (50 mM PIPES, 100 mM KCl), listed as MS1): ~5 fold | water solubility [6]: water-soluble

CCSCCSCCN(CCSCCSCC)Cc1ccccc1NCc1c(O)ccc2c(-c3ccccc3C(=O)O)c3cc(Cl)c(=O)cc-3oc12 [sensor 6]
fluorescence change upon Hg^2+ coordination [4]: fluorescence decrease

CCSCCN(CCSCC)Cc1c2oc3c(CN(CCSCC)CCSCC)c(O)c(Cl)cc3c(-c3ccccc3C(=O)O)c-2cc(Cl)c1=O [sensor 7]
fluorescence change upon Hg^2+ coordination [4]: fluorescence decrease
